System: RAW-Blue cells
Assay: NF-κB transcriptional response in RAW-Blue reporter cells
Assay type: cell-based, mouse
Conditions: 1 µM, 18 h, with or without NOD2 antagonist SG84 10 µM
Source text: Given that cells of the monocyte-macrophage lineage are among the primary responders to NOD2 stimuli,[28] we also examined the effect of 40 on the NF-κB transcriptional response in RAW-Blue reporter cells. These cells, which, similarly to the HEK-Blue cells described above, stably express an NF-κB-inducible SEAP reporter gene, are derived from RAW264.7 mouse macrophages, which in addition to NOD2 also express NOD1 and most Toll-like receptors (TLRs).
Figure S4. NF-kB transcriptional response in the RAW-Blue mouse macrophage reporter cell line. […] Statistical significance was determined by one-way ANOVA followed by Bonferroni’s multiple comparisons test; ***, p < 0.001 versus vehicle-treated control; ###, p < 0.001 versus MDP, 40, or LPS alone; ns, not significant. […]
RAW-Blue cells were seeded (100,000 cells/well) in 96 -well plates in 200 µL growth medium (without Normocin and Zeocin) and treated with MDP (1 µM) or 40 (1 µM), in the presence or absence of LPS ( 10 ng/mL), or the corresponding vehicle (0.1% DMSO). […] After 2 h of incubation (37 °C), SEAP activity was determined spectrophotometrically as absorbance at 630 nm (BioTek Synergy microplate reader; Winooski, VT, USA). […]
Cytokine production was determined with BD Cytometric Bead Array human inflammatory cytokines kit […]

CCOC(=O)CC[C@@H](NC(=O)[C@@H](NC(=O)CNC(=O)/C=C/c1ccc(OC(=O)CC23CC4CC(CC(C4)C2)C3)c(OC)c1)C(C)C)C(=O)OCC [Compound 40]
activation of RAW-Blue cells (NF-κB transcriptional response): activate RAW-Blue cells in a NOD2-dependent manner
